Experiments:
Luminespib/NVP-AUY922 = compound: CCNC(=O)c1noc(-c2cc(C(C)C)c(O)cc2O)c1-c1ccc(CN2CCOCC2)cc1 [Luminespib/NVP-AUY922]
BSJ-01-175 = compound: CN(C)C/C=C/C(=O)Nc1ccc(O[C@@H]2CCC[C@@H](Nc3ncc(Cl)c(-c4c[nH]c5ccccc45)n3)C2)cc1 [BSJ-01-175]
[1] = compound: CCCCOc1c(C(=O)c2c(F)cc(C)cc2F)c[nH]c2nncc1-2
Ceritinib/LDK378 = compound: Cc1cc(Nc2ncc(Cl)c(Nc3ccccc3S(=O)(=O)C(C)C)n2)c(OC(C)C)cc1C1CCNCC1 [Ceritinib/LDK378]
Saracatinib/AZD0530 = compound: CN1CCN(CCOc2cc(OC3CCOCC3)c3c(Nc4c(Cl)ccc5c4OCO5)ncnc3c2)CC1 [Saracatinib/AZD0530]
Flavopiridol = compound: CN1CC[C@H](c2c(O)cc(O)c3c(=O)cc(-c4ccccc4Cl)oc23)[C@H](O)C1 [Flavopiridol]; assay: increase in dead-cell fraction, 72 h; higher = more death;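 further: breast cancer cell lines in 384-well plates, stained with Hoechst plus LIVE/DEAD far red dye and imaged, cells above an LDR intensity threshold counted dead, Hoechst-negative corpses included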
Neratinib/HKI272 = compound: CCOc1cc2ncc(C#N)c(Nc3ccc(OCc4ccccn4)c(Cl)c3)c2cc1NC(=O)/C=C/CN(C)C [Neratinib/HKI272]; assay: as above
[2] = compound: CCN1CCN(Cc2ccc(Nc3ncc(F)c(-c4cc(F)c5nc(C)n(C(C)C)c5c4)n3)nc2)CC1; assay: as above
THZ1 = compound: CN(C)C/C=C/C(=O)Nc1ccc(C(=O)Nc2cccc(Nc3ncc(Cl)c(-c4c[nH]c5ccccc45)n3)c2)cc1 [THZ1]; assay: as above
[3] = compound: CC(=O)c1c(C)c2cnc(Nc3ccc(N4CCNCC4)cn3)nc2n(C2CCCC2)c1=O; assay: as above
THZ531 = compound: CN(C)C/C=C/C(=O)Nc1ccc(C(=O)N2CCC[C@@H](Nc3ncc(Cl)c(-c4c[nH]c5ccccc45)n3)C2)cc1 [THZ531]; assay: as above
LEE011/Ribociclib = compound: CN(C)C(=O)c1cc2cnc(Nc3ccc(N4CCNCC4)cn3)nc2n1C1CCCC1 [LEE011/Ribociclib]; assay: as above
YKL-5-124 = compound: C=CC(=O)Nc1ccc(C(=O)Nc2[nH]nc3c2CN(C(=O)N[C@H](CN(C)C)c2ccccc2)C3(C)C)cc1 [YKL-5-124]; assay: as above
BSJ-03-123 = compound: CC(=O)c1c(C)c2cnc(Nc3ccc(N4CCN(CCOCCOCCOCCNC(=O)COc5cccc6c5C(=O)N(C5CCC(=O)NC5=O)C6=O)CC4)cn3)nc2n(C2CCCC2)c1=O [BSJ-03-123]; assay: as above
[4] = compound: CCc1cnn2c(NCc3ccc[n+]([O-])c3)cc(N3CCCC[C@H]3CCO)nc12; assay: as above
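Wherever GR50, 72 h is given: breast cancer and non-malignant breast epithelial cell lines, Deep Dye Drop or Dye Drop imaging, nine half-log doses, GR normalized to time-zero plates and DMSO-only controls.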

Q: What does the source list for UACC893?
A: GR50, 72 h (Luminespib/NVP-AUY922): 0.00468 µM; GR50, 72 h (BSJ-01-175): 0.0165 µM; GR50, 72 h [1]: 0.0897 µM; GR50, 72 h (Ceritinib/LDK378): > 10 µM; GR50, 72 h (Saracatinib/AZD0530): 4.54 µM; increase in dead-cell fraction (Flavopiridol; 0.0001 µM): -0.0013; increase in dead-cell fraction (Flavopiridol; 0.0003162 µM): -0.0009; increase in dead-cell fraction (Flavopiridol; 0.001 µM): 0.0052; increase in dead-cell fraction (Flavopiridol; 0.003162 µM): -0.0042; increase in dead-cell fraction (Flavopiridol; 0.01 µM): -0.0006; increase in dead-cell fraction (Flavopiridol; 0.03162 µM): 0.0011; increase in dead-cell fraction (Flavopiridol; 0.1 µM): 0.0012; increase in dead-cell fraction (Flavopiridol; 0.3162 µM): 0.013; increase in dead-cell fraction (Flavopiridol; 1 µM): 0.132; increase in dead-cell fraction (Neratinib/HKI272; 0.0003162 µM): -0.0043; increase in dead-cell fraction (Neratinib/HKI272; 0.001 µM): -0.0037; increase in dead-cell fraction (Neratinib/HKI272; 0.003162 µM): 0.0271; increase in dead-cell fraction (Neratinib/HKI272; 0.01 µM): 0.0964; increase in dead-cell fraction (Neratinib/HKI272; 0.03162 µM): 0.113; increase in dead-cell fraction (Neratinib/HKI272; 0.1 µM): 0.187; increase in dead-cell fraction (Neratinib/HKI272; 0.3162 µM): 0.21; increase in dead-cell fraction (Neratinib/HKI272; 1 µM): 0.299; increase in dead-cell fraction (Neratinib/HKI272; 3.162 µM): 0.417; increase in dead-cell fraction ([2]; 0.001 µM): -0.001; increase in dead-cell fraction ([2]; 0.003162 µM): 0.0022; increase in dead-cell fraction ([2]; 0.01 µM): 0.0063; increase in dead-cell fraction ([2]; 0.03162 µM): 0.0037; increase in dead-cell fraction ([2]; 0.1 µM): 0.0039; increase in dead-cell fraction ([2]; 0.3162 µM): 0.0024; increase in dead-cell fraction ([2]; 1 µM): 0.0009; increase in dead-cell fraction ([2]; 3.162 µM): -0.0005; increase in dead-cell fraction ([2]; 10 µM): 0.0324; increase in dead-cell fraction (THZ1; 0.0001 µM): -0.0022; increase in dead-cell fraction (THZ1; 0.0003162 µM): -0.0022; increase in dead-cell fraction (THZ1; 0.001 µM): 0.0023; increase in dead-cell fraction (THZ1; 0.003162 µM): -0.0026; increase in dead-cell fraction (THZ1; 0.01 µM): -0.0007; increase in dead-cell fraction (THZ1; 0.03162 µM): 0.0317; increase in dead-cell fraction (THZ1; 0.1 µM): 0.0774; increase in dead-cell fraction (THZ1; 0.3162 µM): 0.0967; increase in dead-cell fraction (THZ1; 1 µM): 0.134; increase in dead-cell fraction ([3]; 0.0003162 µM): -0.0005; increase in dead-cell fraction ([3]; 0.001 µM): 0.0008; increase in dead-cell fraction ([3]; 0.003162 µM): -0.0028; increase in dead-cell fraction ([3]; 0.01 µM): 0.0018; increase in dead-cell fraction ([3]; 0.03162 µM): 0.006; increase in dead-cell fraction ([3]; 0.1 µM): 0.0063; increase in dead-cell fraction ([3]; 0.3162 µM): 0.0087; increase in dead-cell fraction ([3]; 1 µM): 0.0064; increase in dead-cell fraction ([3]; 3.162 µM): 0.0017; increase in dead-cell fraction (THZ531; 0.0001 µM): -0.0016; increase in dead-cell fraction (THZ531; 0.0003162 µM): 0.0009; increase in dead-cell fraction (THZ531; 0.001 µM): 0.0027; increase in dead-cell fraction (THZ531; 0.003162 µM): 0.0008; increase in dead-cell fraction (THZ531; 0.01 µM): -0.0019; increase in dead-cell fraction (THZ531; 0.03162 µM): 0.0067; increase in dead-cell fraction (THZ531; 0.1 µM): 0.0859; increase in dead-cell fraction (THZ531; 0.3162 µM): 0.0937; increase in dead-cell fraction (THZ531; 1 µM): 0.109; increase in dead-cell fraction (LEE011/Ribociclib; 0.001 µM): -0.0008; increase in dead-cell fraction (LEE011/Ribociclib; 0.003162 µM): -0.0005; increase in dead-cell fraction (LEE011/Ribociclib; 0.01 µM): 0.0034; increase in dead-cell fraction (LEE011/Ribociclib; 0.03162 µM): 0.0015; increase in dead-cell fraction (LEE011/Ribociclib; 0.1 µM): 0.0055; increase in dead-cell fraction (LEE011/Ribociclib; 0.3162 µM): 0.0017; increase in dead-cell fraction (LEE011/Ribociclib; 1 µM): 0.0062; increase in dead-cell fraction (LEE011/Ribociclib; 3.162 µM): 0.0013; increase in dead-cell fraction (LEE011/Ribociclib; 10 µM): 0.0077; increase in dead-cell fraction (YKL-5-124; 0.001 µM): -0.0033; increase in dead-cell fraction (YKL-5-124; 0.003162 µM): 0.0007; increase in dead-cell fraction (YKL-5-124; 0.01 µM): 0.002; increase in dead-cell fraction (YKL-5-124; 0.03162 µM): 0.0043; increase in dead-cell fraction (YKL-5-124; 0.1 µM): 0.007; increase in dead-cell fraction (YKL-5-124; 0.3162 µM): 0.0024; increase in dead-cell fraction (YKL-5-124; 1 µM): -0.0001; increase in dead-cell fraction (YKL-5-124; 3.162 µM): 0.0003; increase in dead-cell fraction (YKL-5-124; 10 µM): 0.163; increase in dead-cell fraction (BSJ-03-123; 0.001 µM): -0.0061; increase in dead-cell fraction (BSJ-03-123; 0.003162 µM): 0.0019; increase in dead-cell fraction (BSJ-03-123; 0.01 µM): 0.0038; increase in dead-cell fraction (BSJ-03-123; 0.03162 µM): -0.0027; increase in dead-cell fraction (BSJ-03-123; 0.1 µM): 0.0026; increase in dead-cell fraction (BSJ-03-123; 0.3162 µM): 0.0022; increase in dead-cell fraction (BSJ-03-123; 1 µM): 0.0012; increase in dead-cell fraction (BSJ-03-123; 3.162 µM): -0.0003; increase in dead-cell fraction (BSJ-03-123; 10 µM): 0.0009; increase in dead-cell fraction ([4]; 0.0001 µM): -0.0009; increase in dead-cell fraction ([4]; 0.0003162 µM): 0.0014; increase in dead-cell fraction ([4]; 0.001 µM): -0.005; increase in dead-cell fraction ([4]; 0.003162 µM): -0.0023; increase in dead-cell fraction ([4]; 0.01 µM): 0.0014; increase in dead-cell fraction ([4]; 0.03162 µM): 0.0697; increase in dead-cell fraction ([4]; 0.1 µM): 0.123; increase in dead-cell fraction ([4]; 0.3162 µM): 0.166; increase in dead-cell fraction ([4]; 1 µM): 0.169

Reference: the supplement of paper PMC9663587
